Measured values: ChEMBL document CHEMBL1201862, “PubChem BioAssay data set” (2004)
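Results reflect a 48-hour exposure of cells in 96-well plates to compound at five concentrations. The concentration for 50% growth inhibition is given as GI50.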 Calls of active or inactive are those of the source. No stated cut-off is given here; in the data, active = GI50 up to about 1.1 µM and inactive = higher.

How the values were obtained:
Assay in all cases: NCI tumour cell line growth inhibition, 48 h
DLD-1 = tested on: DLD-1
DMS-273 = tested on: DMS-273
HOP-18 = tested on: HOP-18
LXFL 529 = tested on: LXFL 529
SNB-78 = tested on: SNB-78
XF498 = tested on: XF498
DMS-114 = tested on: DMS-114
KM-20L2 = tested on: KM-20L2
RXF 631 = tested on: RXF 631

Row | SMILES | GI50 (DLD-1) | GI50 (DMS-273) | GI50 (HOP-18) | GI50 (LXFL 529) | GI50 (SNB-78) | GI50 (XF498) | GI50 (DMS-114) | GI50 (KM-20L2) | GI50 (RXF 631)
1 | CCOC(=O)C(=C=Cc1cccs1)C(=O)c1ccccc1 | 14.3 µM (inactive) | 17.4 µM (inactive) | 17.5 µM (inactive) | 14.9 µM (inactive) | 18.3 µM (inactive) | 16.2 µM (inactive) |  |  | 
2 | COc1ccc(Nc2nc3c(N)cc(C(F)(F)F)cc3nc2-c2ccccc2)cc1 | > 100 µM (inactive) | > 100 µM (inactive) | 36.7 µM (inactive) | 78.2 µM (inactive) | 60.4 µM (inactive) | 31.7 µM (inactive) | 80.7 µM (inactive) | > 100 µM (inactive) | 44.6 µM (inactive)
3 | C=CCc1cc(-c2cc(CC=C)c(O)c(CNC)c2)cc(CNC)c1O | 15.4 µM (inactive) |  |  | 15.2 µM (inactive) | 19.5 µM (inactive) | 16.3 µM (inactive) | 16.1 µM (inactive) | 16.6 µM (inactive) | 15.3 µM (inactive)
4 | COc1ccc(/C=N/N=C(\N)NO)cc1O | 33.8 µM (inactive) |  | > 100 µM (inactive) | > 100 µM (inactive) | > 100 µM (inactive) |  | 30.2 µM (inactive) |  | 
5 | N#CC1CC2(C(=O)C1=O)c1ccccc1-c1ccccc12 (configuration not stated) | > 100 µM (inactive) | > 100 µM (inactive) | 82 µM (inactive) | > 100 µM (inactive) |  |  | > 100 µM (inactive) | > 100 µM (inactive) | 
6 | N#CC(C#N)=C1SCC(=O)CS1 | > 100 µM (inactive) | > 100 µM (inactive) |  | > 100 µM (inactive) | > 100 µM (inactive) | > 100 µM (inactive) | > 100 µM (inactive) | > 100 µM (inactive) | > 100 µM (inactive)
7 | C=Cc1c(-c2ccccc2)cnc2[nH]c3ccccc3c12 | > 50 µM (inactive) | > 50 µM (inactive) |  | > 50 µM (inactive) |  | > 50 µM (inactive) | > 50 µM (inactive) |  | 
8 | CC(=O)Oc1ccccc1C(=O)C1c2cccc(O)c2C(=O)c2c(O)cccc21 | 1.23 µM (inactive) | 1.24 µM (inactive) | 2.16 µM (inactive) | 1.29 µM (inactive) | 1.27 µM (inactive) | 0.561 µM (active) | 0.366 µM (active) | 2.4 µM (inactive) | 3.01 µM (inactive)
9 | O=C1CSC(/C(=C/c2ccccc2)c2nc3ccccc3[nH]2)=N1 | > 100 µM (inactive) |  |  | 47.4 µM (inactive) | > 100 µM (inactive) | 41.3 µM (inactive) | 32.3 µM (inactive) | > 100 µM (inactive) | 
10 | CCCC(O)c1cn(-c2cccc(S(=O)(=O)O)c2)nn1 (configuration not stated) | > 100 µM (inactive) | > 100 µM (inactive) | > 100 µM (inactive) | > 100 µM (inactive) | > 100 µM (inactive) | > 100 µM (inactive) | > 100 µM (inactive) | > 100 µM (inactive) | > 100 µM (inactive)
11 | NC(=O)C(=O)n1ncc(Cl)c(Cl)c1=O | 15.3 µM (inactive) | 25 µM (inactive) | 20 µM (inactive) | 15.1 µM (inactive) | 20.3 µM (inactive) | 17 µM (inactive) | 16.9 µM (inactive) | 28.7 µM (inactive) | 
12 | [N-]=[N+]=NC(c1cn(C2CC(O)C(CO)O2)c(=O)[nH]c1=O)C(Br)Br (configuration not stated) | > 100 µM (inactive) | > 100 µM (inactive) | > 100 µM (inactive) | > 100 µM (inactive) | > 100 µM (inactive) |  | > 100 µM (inactive) | > 100 µM (inactive) | 
13 | CC(C)(C)NNC(=O)/C(=C/c1ccc([N+](=O)[O-])cc1)NC(=O)c1ccccc1 | 43.5 µM (inactive) | 33.7 µM (inactive) | > 100 µM (inactive) | > 100 µM (inactive) | > 100 µM (inactive) | > 100 µM (inactive) | 18.6 µM (inactive) | > 100 µM (inactive) | 
14 | C/C(=N/Nc1ccc([N+](=O)[O-])cc1[N+](=O)[O-])C(CC(C(=O)Nc1ccccc1C)/C(C)=N\Nc1ccc([N+](=O)[O-])cc1[N+](=O)[O-])C(=O)Nc1ccccc1C (configuration not stated) | 28.4 µM (inactive) | 14.8 µM (inactive) | 14.4 µM (inactive) | 14.3 µM (inactive) | 16.4 µM (inactive) | 14.5 µM (inactive) | 6.87 µM (inactive) | 31 µM (inactive) | 
15 | N#CCC(=O)N1CCCCCCC1 | > 100 µM (inactive) | 35.7 µM (inactive) |  | 77.8 µM (inactive) | > 100 µM (inactive) |  | 31.3 µM (inactive) | > 100 µM (inactive) | 
16 | O=C(COC(=O)c1cccc2c(=O)c3ccccc3[nH]c12)Nc1ccc(Cl)cc1 | 16.9 µM (inactive) |  | > 100 µM (inactive) | 61.7 µM (inactive) | 25.7 µM (inactive) | 46.8 µM (inactive) | 58.6 µM (inactive) | > 100 µM (inactive) | 
17 | O=C(NC12CC3CC(CC(F)(C3)C1)C2)c1ccccc1 | > 100 µM (inactive) | > 100 µM (inactive) |  | > 100 µM (inactive) | > 100 µM (inactive) | > 100 µM (inactive) | > 100 µM (inactive) | > 100 µM (inactive) | 
18 | CC1(C)OCC(CO)(Nc2nc(N3CC3)nc(N3CC3)n2)CO1 | 31.3 µM (inactive) | 3.04 µM (inactive) | 27 µM (inactive) | 24.5 µM (inactive) | 22.3 µM (inactive) | 14.3 µM (inactive) | 4.65 µM (inactive) | 18.6 µM (inactive) | 
19 | COC1(C)C(=O)N2C1N(C(=O)OC(C)(C)C)CC2(C)C (configuration not stated) | > 100 µM (inactive) | > 100 µM (inactive) | > 100 µM (inactive) | > 100 µM (inactive) | > 100 µM (inactive) |  | 42.8 µM (inactive) | > 100 µM (inactive) | 
20 | COc1ccc(C(=O)C/C(=N/NC(N)=S)C(=O)Nc2ccccc2)cc1 | > 100 µM (inactive) | > 100 µM (inactive) | > 100 µM (inactive) | 97.7 µM (inactive) | > 100 µM (inactive) | > 100 µM (inactive) | > 100 µM (inactive) | > 100 µM (inactive) | 
21 | COC(=O)C1=C(C)C(=O)[C@H]2C(C(=O)OC)CCCC[C@@H]12 (some centres not stated) | > 100 µM (inactive) | 90.2 µM (inactive) | > 100 µM (inactive) | > 100 µM (inactive) | > 100 µM (inactive) | 89.9 µM (inactive) | 20.9 µM (inactive) | > 100 µM (inactive) | 
